# How the values were obtained:
# Pim-1 kinase = Pim-1 kinase (Homo sapiens (Human), UniProt P11309); assay: Pim-1 kinase inhibition assay (Promega Kinase-Glo); type: biochemical; conditions: read-out: IC50 on Pim1
# Source text: One illustrative manner in which Pim-1 kinase activity can be determined is by quantifying the amount of ATP remaining in solution after an in vitro Pim-1 kinase reaction. The Kinase-Glo Assay Kit (Promega, Inc., Madison, Wis.) allows this. The amount of ATP remaining in the solution after the kinase reaction serves as a substrate for the luciferase to catalyze luciferin to oxyluciferin plus one photon of light. Thus, the luminescent signal read by the Luminoskan Ascent Instrument (Thermo Electron Corp., Milford, Mass.) correlates with the amount of ATP present after the kinase reaction and inversely correlates with the amount of kinase activity. […] These assays are set up in duplicate 50 ul volumes in white, flat bottom 96 well plates. […] This solution is incubated at 30 degrees Celsius at 360 rpm for two hours. Following the incubation, 50 ul of Kinase-Glo reagent is added to each well, including all positive and negative control wells, and incubated at room temperature for 15 minutes. […] The IC50 values can then be calculated for each inhibitor tested.
# PC-3 xenograft tumors = assay: PC-3 established mouse xenograft; type: in vivo
# Source text: (§1) Male and female Nu/Nu mice were purchased from Harlan Sprague Dawley (Indianapolis, Ind.). Female Nu/Nu mice were used for all xenograft evaluations with the exception of the PC-3 xenografts where male Nu/Nu mice were used. Cell lines were expanded in vitro in complete media, and if adherent were harvested by trypsin-EDTA, centrifuged and resuspended in PBS 1:1 with Matrigel (BD Bioscienes). Cells were inoculated subcutaneously in the right hind flank of mice. […] Tumor volumes and body weights were determined twice a week, and tumor weights were measured at the completion of the translational xenograft studies.
# UM-UC-3 xenograft tumors = assay: UM-UC-3 established mouse xenograft; type: in vivo
# Source text: as §1
# hematological cell lines = assay: In vitro viability assay, panel of hematological cell lines; type: cell-based; conditions: most sensitive hematological cell lines
# Procedure: (§2) Adherent or suspension cancer cell lines were seeded at 2000-5000 cells/well in a 96-well plate, or 1000-2000 cells/well in a 384-well plate. Suspension cells were treated with drug the same day as seeding, while adherent cells were incubated overnight at 37° C. in 5% CO2 prior to drug treatment. All cells were treated for 72 hours, then lysed with ATPlite (Perkin Elmer) and measured on an Envision microplate reader. IC50 values were determined using GraphPad Prism software.
# (§3) Over 35 cell lines were tested, and the most sensitive cell lines from various indications were selected and verified by multiple EC50 determinations (FIG. 6). […] Anti-proliferative activity using PIM-2 shRNA against FLT3-ITD driven leukemia lines has been observed (Adam (2006) Cancer Res 66:3828-35 data not shown).
# [1] = test system: ML-2 cells (wild-type FLT3); assay: ML-2 mouse xenograft; type: in vivo; conditions: ML-2 (wild-type FLT3) xenograft
# Source text: (§4) Male and female Nu/Nu mice were purchased from Harlan Sprague Dawley (Indianapolis, Ind.). Female Nu/Nu mice were used for all xenograft evaluations with the exception of the PC-3 xenografts where male Nu/Nu mice were used. Cell lines were expanded in vitro in complete media, and if adherent were harvested by trypsin-EDTA, centrifuged and resuspended in PBS 1:1 with Matrigel (BD Bioscienes). Cells were inoculated subcutaneously in the right hind flank of mice. When tumors reached 100-200 mm^3 by caliper measurement, mice were randomized and dosing of SGI-9481 or vehicle control began and continued every day for 5 days (QDx5) with 2 days off for 18-21 days. Tumor volumes and body weights were determined twice a week, and tumor weights were measured at the completion of the translational xenograft studies.
# MV-4-11 (FLT3-ITD) = assay: MV-4-11 mouse xenograft; type: in vivo; conditions: MV-4-11 (FLT3-ITD) established xenografts
# Source text: as §4
# UM-UC-3 = assay: In vitro viability/proliferation assay, UM-UC-3; type: cell-based; conditions: Homo sapiens, UMUC3; bladder line UM-UC-3
# Procedure: as §2, §3
# [2] = 125 mg/kg, less than with 200 mg/kg
# Chain of Pim-1 kinase (P11309 whole entry): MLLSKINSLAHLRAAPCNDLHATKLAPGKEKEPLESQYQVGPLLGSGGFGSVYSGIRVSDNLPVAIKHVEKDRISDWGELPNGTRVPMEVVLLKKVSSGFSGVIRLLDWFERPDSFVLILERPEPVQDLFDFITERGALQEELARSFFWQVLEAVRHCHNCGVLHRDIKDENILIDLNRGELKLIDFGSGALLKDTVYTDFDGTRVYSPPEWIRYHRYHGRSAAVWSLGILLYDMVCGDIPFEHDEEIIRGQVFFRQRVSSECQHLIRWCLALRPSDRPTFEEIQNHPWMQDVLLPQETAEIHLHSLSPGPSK
Molecule,IC50 (Pim-1 kinase),tumor growth inhibition (PC-3 xenograft tumors; [2]),body weight and gross adverse toxicity (PC-3 xenograft tumors; oral dosing of 200 mg/kg),tumor growth measured by volume (caliper) and by final tumor weight (PC-3 xenograft tumors; oral dosing of 200 mg/kg),tumor growth inhibition (UM-UC-3 xenograft tumors; [2]),body weight and gross adverse toxicity (UM-UC-3 xenograft tumors; oral dosing of 200 mg/kg),tumor growth measured by volume (caliper) and by final tumor weight (UM-UC-3 xenograft tumors; oral dosing of 200 mg/kg),EC50 (hematological cell lines),tumor growth [1],tumor growth of established xenografts (MV-4-11 (FLT3-ITD)),EC50 (UM-UC-3)
"4-(((3-(3-(Trifluoromethyl)phenyl)-[1,2,4]triazolo[4,3-a]pyridin-6-yl)amino)methyl)tetrahydro-2H-thiopyran 1,1-dioxide [Compound 8-111]",> 30000 nM,,,,,,,,,,
CC(C)(O)[C@H]1CC[C@H](Nc2ccc3ncc(-c4cccc(C(F)(F)F)c4)n3n2)CC1 [Compound 8-31],,significant tumor growth inhibition,no significant changes in body weight or gross adverse toxicity,significantly reduced,significant tumor growth inhibition,no significant changes in body weight or gross adverse toxicity,significantly reduced,1000 to 2000 nM,significant tumor growth inhibition,induced regressions,1000 to 2000 nM
"C[C@]1(O)CC[C@H](Nc2ccc3nnc(-c4cccc(OC(F)(F)F)c4)n3c2)CC1 [Compound 8-100, 1-Methyl-4-((3-(3-(trifluoromethoxy)phenyl)-[1,2,4]triazolo[4,3-a]pyridin-6-yl)amino)-trans-cyclohexanol]",1640 nM,,,,,,,,,,
